# In patent US9040545B2, “Heterocyclyl pyrazolopyrimidine analogues as selective JAK inhibitors” (Cellzome Limited, priority 2010, dated 2015):
# Molecular target: T1, JAK3 (Homo sapiens, UniProt P52333)
# T1 construct: endogenous in cells; host or cells: mixed Molt4/Ramos lysate (1:2)
# T1 sequence (P52333 1-1124): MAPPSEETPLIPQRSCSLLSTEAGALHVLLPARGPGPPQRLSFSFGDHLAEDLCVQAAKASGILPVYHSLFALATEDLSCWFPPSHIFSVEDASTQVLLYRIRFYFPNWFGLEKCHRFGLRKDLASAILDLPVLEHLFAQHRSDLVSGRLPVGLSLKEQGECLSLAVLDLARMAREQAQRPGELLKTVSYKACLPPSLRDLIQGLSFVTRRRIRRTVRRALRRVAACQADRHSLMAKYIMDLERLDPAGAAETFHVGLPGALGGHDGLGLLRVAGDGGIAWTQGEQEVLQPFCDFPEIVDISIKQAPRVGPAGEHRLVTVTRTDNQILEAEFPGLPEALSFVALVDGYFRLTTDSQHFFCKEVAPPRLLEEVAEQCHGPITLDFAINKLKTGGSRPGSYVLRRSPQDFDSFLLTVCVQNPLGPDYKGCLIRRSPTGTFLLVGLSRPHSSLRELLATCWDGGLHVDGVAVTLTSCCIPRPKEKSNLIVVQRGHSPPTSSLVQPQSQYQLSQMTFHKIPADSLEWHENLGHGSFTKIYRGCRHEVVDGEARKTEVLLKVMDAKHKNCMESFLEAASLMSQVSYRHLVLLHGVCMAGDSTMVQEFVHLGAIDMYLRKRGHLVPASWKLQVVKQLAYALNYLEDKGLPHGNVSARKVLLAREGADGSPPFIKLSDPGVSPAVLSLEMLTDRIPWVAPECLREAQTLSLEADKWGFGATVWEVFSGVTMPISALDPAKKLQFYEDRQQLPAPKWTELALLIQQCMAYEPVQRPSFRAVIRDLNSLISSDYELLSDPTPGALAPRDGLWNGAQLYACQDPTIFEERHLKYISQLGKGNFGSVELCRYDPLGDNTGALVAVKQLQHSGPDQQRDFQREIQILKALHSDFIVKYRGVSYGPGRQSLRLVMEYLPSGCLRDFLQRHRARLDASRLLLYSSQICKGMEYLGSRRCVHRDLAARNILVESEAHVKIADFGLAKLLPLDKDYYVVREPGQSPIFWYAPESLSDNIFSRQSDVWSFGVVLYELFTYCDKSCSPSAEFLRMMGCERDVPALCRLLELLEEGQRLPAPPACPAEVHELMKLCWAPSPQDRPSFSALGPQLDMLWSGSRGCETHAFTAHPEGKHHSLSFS
# Experiment: Kinobeads assay, JAK3
# Assay type: binding
# Details: mixed Molt4/Ramos lysate, read-out: Inhibition values (IC50) JAK3
# Method: The compounds of the present invention as described in the previous examples were tested in a Kinobeads™ assay as described for ZAP-70 (WO-A 2007/137867). Briefly, test compounds (at various concentrations) and the affinity matrix with the immobilized aminopyrido-pyrimidine ligand 24 were added to cell lysate aliquots and allowed to bind to the proteins in the lysate sample. After the incubation time the beads with captured proteins were separated from the lysate. Bound proteins were then eluted and the presence of JAK2 and JAK3 was detected and quantified using specific antibodies in a dot blot procedure and the Odyssey infrared detection system. Dose response curves for individual kinases were generated and IC50 values calculated. Kinobeads™ assays for ZAP-70 (WO-A 2007/137867) and for kinase selectivity profiling (WO-A 2006/134056) have been previously described.
# The affinity matrix was washed two times with 15 mL of 1×DP buffer containing 0.2% NP40 (IGEPAL® CA-630, Sigma, #I3021) and then resuspended in 1×DP buffer containing 0.2% NP40 (3% beads slurry).
# 5×DP buffer 250 mM Tris-HCl pH 7.4, 25% Glycerol, 7.5 mM MgCl2, 750 mM NaCl, 5 mM Na3VO4; filter the 5×DP buffer through a 0.22 μm filter and store in aliquots at −80° C. The 5×DP buffer is diluted with H2O to 1×DP buffer containing 1 mM DTT and 25 mM NaF.
# Stock solutions of test compounds were prepared in DMSO. In a 96 well plate 30 μL solution of diluted test compounds at 5 mM in DMSO were prepared. Starting with this solution a 1:3 dilution series (9 steps) was prepared. For control experiments (no test compound) a buffer containing 2% DMSO was used.
# Molt4 cells (ATCC catalogue number CRL-1582) and Ramos cells (ATCC catalogue number CRL-1596) were grown in 1 L Spinner flasks (Integra Biosciences, #182101) in suspension in RPMI 1640 medium (Invitrogen, #21875-034) supplemented with 10% Fetal Bovine Serum (Invitrogen) at a density between 0.15×106 and 1.2×10^6 cells/mL. Cells were harvested by centrifugation, washed once with 1×PBS buffer (Invitrogen, #14190-094) and cell pellets were frozen in liquid nitrogen and subsequently stored at −80° C. Cells were homogenized in a Potter S homogenizer in lysis buffer: 50 mM Tris-HCl, 0.8% NP40, 5% glycerol, 150 mM NaCl, 1.5 mM MgCl2, 25 mM NaF, 1 mM sodium vanadate, 1 mM DTT, pH 7.5. One complete EDTA-free tablet (protease inhibitor cocktail, Roche Diagnostics, 1873580) per 25 mL buffer was added. The material was dounced 10 times using a mechanized POTTER S, transferred to 50 mL falcon tubes, incubated for 30 minutes on ice and spun down for 10 minutes at 20,000 g at 4° C. (10,000 rpm in Sorvall SLA600, precooled). The supernatant was transferred to an ultracentrifuge (UZ)-polycarbonate tube (Beckmann, 355654) and spun for 1 hour at 100,000 g at 4° C. (33.500 rpm in Ti50.2, precooled). The supernatant was transferred again to a fresh 50 mL falcon tube, the protein concentration was determined by a Bradford assay (BioRad) and samples containing 50 mg of protein per aliquot were prepared. The samples were immediately used for experiments or frozen in liquid nitrogen and stored frozen at −80° C.
# Cell lysate (approximately 50 mg protein per plate) was thawed in a water bath at room temperature and then stored on ice. To the thawed cell lysate 1×DP 0.8% NP40 buffer containing protease inhibitors (1 tablet for 25 mL buffer; EDTA-free protease inhibitor cocktail; Roche Diagnostics 1873580) was added in order to reach a final protein concentration of 10 mg/mL total protein. The diluted cell lysate was stored on ice. Mixed Molt4/Ramos lysate was prepared by combining one volume of Molt4 lysate and two volumes of Ramos lysate (ratio 1:2).
# To a 96 well filter plate (Multiscreen HTS, BV Filter Plates, Millipore #MSBVN1250) were added per well: 100 μL affinity matrix (3% beads slurry), 3 μL of compound solution, and 50 μL of diluted lysate. […]
structure (smiles),measurement,value
"Cn1cc(Nc2ncc3cnn(Cc4cccc(N5CCNCC5=O)c4)c3n2)cn1 [Example 36, 1-(3-((6-((1-Methyl-1H-pyrazol-4-yl)amino)-1H-pyrazolo[3,4-d]pyrimidin-1-yl)methyl)phenyl)piperazin-2-one]",IC50,< 100 nM
"Cn1cc(Nc2ncc3cnn(Cc4cc(N5CCOCC5)cc(F)c4F)c3n2)cn1 [Example 37, 1-(2,3-Difluoro-5-morpholinobenzyl)-N-(1-methyl-1H-pyrazol-4-yl)-1H-pyrazolo[3,4-d]pyrimidin-6-amine]",IC50,100 to 1000 nM
"Cn1cc(Nc2ncc3cnn(Cc4c(F)ccc(N5CCOCC5)c4F)c3n2)cn1 [Example 38, 1-(2,6-Difluoro-3-morpholinobenzyl)-N-(1-methyl-1H-pyrazol-4-yl)-1H-pyrazolo[3,4-d]pyrimidin-6-amine]",IC50,< 100 nM
"OCCn1cc(Nc2ncc3cnn(Cc4cccc(N5CCOCC5)c4F)c3n2)cn1 [Example 39, 2-(4-((1-(2-Fluoro-3-morpholinobenzyl)-1H-pyrazolo[3,4-d]pyrimidin-6-yl)amino)-1H-pyrazol-1-yl)ethanol]",IC50,< 100 nM
"Cn1cc(Nc2ncc3cnn(Cc4cccc(N5CCOCC5=O)c4F)c3n2)cn1 [Example 40, 4-(2-Fluoro-3-((6-((1-methyl-1H-pyrazol-4-yl)amino)-1H-pyrazolo[3,4-d]pyrimidin-1-yl)methyl)phenyl)morpholin-3-one]",IC50,< 100 nM
"CNCC1(Cn2cc(Nc3ncc4cnn(Cc5cccc(N6CCOCC6)c5)c4n3)cn2)COC1 [Example 41, N-(1-((3-((Methylamino)methyl)oxetan-3-yl)methyl)-1H-pyrazol-4-yl)-1-(3-morpholinobenzyl)-1H-pyrazolo[3,4-d]pyrimidin-6-amine]",IC50,< 100 nM
"Cn1cc(Nc2ncc3cnn(Cc4cccc(N5CC6(COC6)C5)c4)c3n2)cn1 [Example 89, 1-(3-(2-oxa-6-azaspiro[3.3]heptan-6-yl)benzyl)-N-(1-methyl-1H-pyrazol-4-yl)-1H-pyrazolo[3,4-d]pyrimidin-6-amine]",IC50,< 100 nM
"Cn1cc(Nc2ncc3cnn(Cc4cc(F)cc(N5CC6(COC6)C5)c4)c3n2)cn1 [Example 90, 1-(3-fluoro-5-(2-oxa-6-azaspiro[3.3]heptan-6-yl)benzyl)-N-(1-methyl-1H-pyrazol-4-yl)-1H-pyrazolo[3,4-d]pyrimidin-6-amine]",IC50,< 100 nM
"Cn1cc(Nc2ncc3cnn(Cc4cccc(N5CC6(COC6)C5)c4F)c3n2)cn1 [Example 91, 1-(2-fluoro-3-(2-oxa-6-azaspiro[3.3]heptan-6-yl)benzyl)-N-(1-methyl-1H-pyrazol-4-yl)-1H-pyrazolo[3,4-d]pyrimidin-6-amine]",IC50,< 100 nM
"Cn1cc(Nc2ncc3cnn(Cc4cc(F)cc(N5CCNCC5)c4)c3n2)cn1 [Example 92, 1-(3-fluoro-5-(piperazin-1-yl)benzyl)-N-(1-methyl-1H-pyrazol-4-yl)-1H-pyrazolo[3,4-d]pyrimidin-6-amine]",IC50,< 100 nM
"OCCn1cc(Nc2ncc3cnn(Cc4cc(F)cc(N5CCNCC5)c4)c3n2)cn1 [Example 93, 2-(4-((1-(3-fluoro-5-(piperazin-1-yl)benzyl)-1H-pyrazolo[3,4-d]pyrimidin-6-yl)amino)-1H-pyrazol-1-yl)ethanol]",IC50,< 100 nM
"Fc1cc(N2CCOCC2)c(F)c(Cn2ncc3cnc(Nc4cnn(CC5CCNC5)c4)nc32)c1F (stereo not shown) [Example 94, N-(1-(pyrrolidin-3-ylmethyl)-1H-pyrazol-4-yl)-1-(2,3,6-trifluoro-5-morpholinobenzyl)-1H-pyrazolo[3,4-d]pyrimidin-6-amine]",IC50,< 100 nM
"Cn1cc(Nc2ncc3cnn(Cc4cc(F)cc(N5CCNCC5)c4F)c3n2)cn1 [Example 95, 1-(2,5-difluoro-3-(piperazin-1-yl)benzyl)-N-(1-methyl-1H-pyrazol-4-yl)-1H-pyrazolo[3,4-d]pyrimidin-6-amine]",IC50,< 100 nM
"OCCn1cc(Nc2ncc3cnn(Cc4cc(F)cc(N5CCNCC5)c4F)c3n2)cn1 [Example 96, 2-(4-((1-(2,5-difluoro-3-(piperazin-1-yl)benzyl)-1H-pyrazolo[3,4-d]pyrimidin-6-yl)amino)-1H-pyrazol-1-yl)ethanol]",IC50,< 100 nM
"CN(C)CC(F)Cn1cc(Nc2ncc3cnn(Cc4cc(F)cc(N5CCOCC5=O)c4)c3n2)cn1 (stereo not shown) [Example 97, 4-(3-((6-((1-(3-(dimethylamino)-2-fluoropropyl)-1H-pyrazol-4-yl)amino)-1H-pyrazolo[3,4-d]pyrimidin-1-yl)methyl)-5-fluorophenyl)morpholin-3-one]",IC50,< 100 nM
"Cn1cc(Nc2ncc3cnn(Cc4cc(C(=O)N5CCOCC5)cc(F)c4F)c3n2)cn1 [Example 98, (3,4-difluoro-5-((6-((1-methyl-1H-pyrazol-4-yl)amino)-1H-pyrazolo[3,4-d]pyrimidin-1-yl)methyl)phenyl)(morpholino)methanone]",IC50,< 100 nM
"CNCCCn1cc(Nc2ncc3cnn(Cc4cc(F)cc(N5CCOCC5=O)c4)c3n2)cn1 [Example 99, 4-(3-fluoro-5-((6-((1-(3-(methylamino)propyl)-1H-pyrazol-4-yl)amino)-1H-pyrazolo[3,4-d]pyrimidin-1-yl)methyl)phenyl)morpholin-3-one]",IC50,< 100 nM
"Cn1cc(Nc2ncc3cnn(Cc4cccc(N5CCN(S(C)(=O)=O)CC5)c4)c3n2)cn1 [Example 100, N-(1-methyl-1H-pyrazol-4-yl)-1-(3-(4-(methylsulfonyl)piperazin-1-yl)benzyl)-1H-pyrazolo[3,4-d]pyrimidin-6-amine]",IC50,< 100 nM
"O=C1COCCN1c1cc(F)cc(Cn2ncc3cnc(Nc4cnn(CC5CCNC5)c4)nc32)c1 (stereo not shown) [Example 101, 4-(3-fluoro-5-((6-((1-(pyrrolidin-3-ylmethyl)-1H-pyrazol-4-yl)amino)-1H-pyrazolo[3,4-d]pyrimidin-1-yl)methyl)phenyl)morpholin-3-one]",IC50,< 100 nM
